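Assay format: 96-well plates, 48-hour exposure. GI50 is the concentration that inhibits growth by half. Definition used: TGI = concentration required for complete inhibition of growth.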
Key:
Assay in all cases: growth of human tumour cells (NCI), 48 h
HT29 colon = system: HT29 colon
A498 renal = system: A498 renal
MOLT-4 leukemia = system: MOLT-4 leukemia
IGROV1 ovarian = system: IGROV1 ovarian
OVCAR-5 ovarian = system: OVCAR-5 ovarian
RPMI-8226 leukemia = system: RPMI-8226 leukemia
HOP-62 NSCLC = system: HOP-62 NSCLC
SK-MEL-28 melanoma = system: SK-MEL-28 melanoma
MALME-3M melanoma = system: MALME-3M melanoma
HCT-15 colon = system: HCT-15 colon
MCF7 breast = system: MCF7 breast
LOX IMVI melanoma = system: LOX IMVI melanoma
SNB-19 CNS = system: SNB-19 CNS
SF-539 CNS = system: SF-539 CNS
RXF 393 renal = system: RXF 393 renal
KM12 colon = system: KM12 colon
OVCAR-8 ovarian = system: OVCAR-8 ovarian
SN12C renal = system: SN12C renal
786-0 renal = system: 786-0 renal
EKVX NSCLC = system: EKVX NSCLC
HCT-116 colon = system: HCT-116 colon
NCI-H460 lung = system: NCI-H460 lung
PC-3 prostate = system: PC-3 prostate
NCI/ADR-RES ovarian = system: NCI/ADR-RES ovarian
TK-10 renal = system: TK-10 renal
HL-60(TB) leukemia = system: HL-60(TB) leukemia
T-47D breast = system: T-47D breast
HCC-2998 colon = system: HCC-2998 colon
SR leukemia = system: SR leukemia

## Cc1ccc(-c2ccc(SCC(=O)Nc3ccc(Cl)c(C(F)(F)F)c3)nn2)cc1
HT29 colon
  GI50: 0.512 µM
  TGI: > 100 µM
A498 renal
  GI50: 3.75 µM
  TGI: 38 µM
MOLT-4 leukemia
  GI50: 0.578 µM
  TGI: > 100 µM
IGROV1 ovarian
  GI50: 1.46 µM
  TGI: 46.4 µM
OVCAR-5 ovarian
  GI50: 3.24 µM
  TGI: > 100 µM
RPMI-8226 leukemia
  GI50: 0.986 µM
  TGI: > 100 µM
HOP-62 NSCLC
  GI50: 1.23 µM
  TGI: 24.1 µM
SK-MEL-28 melanoma
  GI50: 5.77 µM
  TGI: > 100 µM
MALME-3M melanoma
  GI50: 0.589 µM
  TGI: 36.5 µM
HCT-15 colon
  GI50: 0.405 µM
  TGI: > 100 µM
MCF7 breast
  GI50: 0.563 µM
  TGI: > 100 µM
LOX IMVI melanoma
  GI50: 2.48 µM
  TGI: > 100 µM
SNB-19 CNS
  GI50: 3.21 µM
  TGI: 56.6 µM
SF-539 CNS
  GI50: 0.754 µM
  TGI: 3.35 µM
RXF 393 renal
  GI50: 1.1 µM
  TGI: 5.93 µM
KM12 colon
  GI50: 0.732 µM
  TGI: > 100 µM
OVCAR-8 ovarian
  GI50: 2.71 µM
  TGI: > 100 µM
SN12C renal
  GI50: 4.85 µM
  TGI: > 100 µM
786-0 renal
  GI50: 0.892 µM
  TGI: 37.7 µM
EKVX NSCLC
  GI50: 2.93 µM
  TGI: > 100 µM
HCT-116 colon
  GI50: 0.445 µM
  TGI: > 100 µM
NCI-H460 lung
  GI50: 3.22 µM
  TGI: > 100 µM
PC-3 prostate
  GI50: 0.878 µM
  TGI: > 100 µM
NCI/ADR-RES ovarian
  GI50: 0.393 µM
  TGI: 2.14 µM
TK-10 renal
  GI50: 12.7 µM
  TGI: 52.8 µM
HL-60(TB) leukemia
  GI50: 0.319 µM
  TGI: 2.32 µM
T-47D breast
  GI50: 0.594 µM
  TGI: > 100 µM
HCC-2998 colon
  GI50: 1.29 µM
  TGI: 10.5 µM
SR leukemia
  GI50: 0.34 µM
